Data taken from patent EP0885890A1, “SULFONYLUREIDOPYRAZOLE DERIVATIVES” (SUMITOMO PHARMACEUTICALS COMPANY, LIMITED, priority 1996, dated 1997).

What was measured:
rat lung ECE = biological target: T1, rat lung ECE (Rattus norvegicus, UniProt P42893); experiment: ECE inhibitory activity (rat lung ECE, conversion of human big ET-1 to ET-1, sandwich enzyme immunoassay); type: biochemical; details: rat lung ECE 10 µg, human big ET-1 0.8µg, 37°C, one hour
T1 construct: The solution was ultracentrifuged to obtain a supernatant, which can be used as the rat lung ECE; from tissue; host or cells: rat lung
T1 sequence (P42893 1-762): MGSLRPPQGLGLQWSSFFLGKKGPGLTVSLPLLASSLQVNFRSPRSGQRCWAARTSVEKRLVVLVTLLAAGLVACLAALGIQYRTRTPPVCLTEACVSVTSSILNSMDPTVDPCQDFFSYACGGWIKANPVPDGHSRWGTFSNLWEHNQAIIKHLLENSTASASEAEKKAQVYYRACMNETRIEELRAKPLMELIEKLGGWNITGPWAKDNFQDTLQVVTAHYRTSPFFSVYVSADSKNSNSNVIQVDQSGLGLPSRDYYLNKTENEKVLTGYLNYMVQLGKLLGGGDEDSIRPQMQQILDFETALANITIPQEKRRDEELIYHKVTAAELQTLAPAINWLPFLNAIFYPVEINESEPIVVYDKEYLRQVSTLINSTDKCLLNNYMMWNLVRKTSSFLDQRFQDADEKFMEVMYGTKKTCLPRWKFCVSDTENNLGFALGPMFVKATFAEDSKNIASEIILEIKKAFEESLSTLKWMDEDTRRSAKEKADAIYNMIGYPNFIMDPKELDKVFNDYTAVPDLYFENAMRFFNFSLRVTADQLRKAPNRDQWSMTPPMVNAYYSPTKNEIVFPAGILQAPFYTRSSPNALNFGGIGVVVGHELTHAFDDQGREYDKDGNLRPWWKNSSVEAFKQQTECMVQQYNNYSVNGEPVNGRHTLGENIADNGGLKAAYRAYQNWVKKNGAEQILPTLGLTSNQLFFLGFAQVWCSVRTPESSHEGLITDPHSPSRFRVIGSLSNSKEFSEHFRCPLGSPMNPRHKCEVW
Protocol: Preparation of rat lung ECE and measurement of ECE inhibitory activity
Rat lung tissue was homogenized with a homogenizer in ice-cold 20 mM Tris-HCl buffer (pH7.5) containing 5 mM magnesium chloride, 1 mM phenylmethylsulfonyl fluoride (PMSF), 20 µM pepstatin A, and 20 µM leupeptin. The homogenate was centrifuged at 800 x G, and the supernatant was ultracentrifuged at 100,000 x G. Then, the procedures in which the resulting pellet was resuspended in the above buffer and ultracentrifuged as shown above, were repeated further twice so that plasma components and the like were removed. The resulting pellet was suspended, homogenized with a glass homogenizer, and ultracentrifuged. The resulting pellet was solubilized in 0.5% Triton X- 100. The solution was ultracentrifuged to obtain a supernatant, which can be used as the rat lung ECE. Each test compound and the rat lung ECE (10 µg) were preincubated at 37°C for 15 minutes in a 100mM Tris-HCl buffer (pH7.0) containing 1mM NEM, 100µM leupeptin, and 20µM pepstatin A, and then human big ET-1 (0.8µg) was added thereto (totally 200µl), and the mixture was incubated at 37°C for one hour.
The reaction was stopped by the addition of EDTA to give a final concentration of 1mM. ECE activities were determined to quantify the produced ET-1 by the ET-1 specific sandwich enzyme immunoassay method.
ECE inhibitory activities of the test compounds were evaluated by determination of the ECE activities in the presence or absence of the test compounds.

endopeptidase = experiment: Inhibitory activity against metalloproteases other than ECE (endopeptidase); type: biochemical; details: at 10^-5M
Excerpt: (§1) The inhibitory activity of the compound of Preparation 1 against metalloproteases other than ECE, such as endopeptidase, stromelissin, and the like, are under 20% at 10^-5M, and therefore, the compound is highly specific to ECE.

stromelissin = stromelissin (Homo sapiens, UniProt P08254); experiment: Inhibitory activity against metalloproteases other than ECE (stromelissin); type: biochemical; details: at 10^-5M
Chain of stromelissin (P08254 100-477): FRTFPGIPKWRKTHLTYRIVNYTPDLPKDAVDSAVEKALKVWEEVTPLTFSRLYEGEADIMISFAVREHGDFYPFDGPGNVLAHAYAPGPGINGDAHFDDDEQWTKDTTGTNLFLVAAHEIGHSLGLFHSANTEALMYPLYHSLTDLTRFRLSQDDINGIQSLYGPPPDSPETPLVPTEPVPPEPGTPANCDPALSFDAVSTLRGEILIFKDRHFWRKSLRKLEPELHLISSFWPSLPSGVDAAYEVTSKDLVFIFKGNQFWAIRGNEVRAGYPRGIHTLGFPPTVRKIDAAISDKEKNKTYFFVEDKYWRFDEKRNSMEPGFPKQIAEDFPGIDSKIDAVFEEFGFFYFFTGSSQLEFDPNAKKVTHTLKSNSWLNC
Excerpt: as §1

ECE = biological target: T2, ECE (Rattus norvegicus, UniProt P42893); experiment: Effect on the change in blood pressure induced by big ET-1 in anesthetized rats (ECE inhibition in vivo); parameters: species or system Male SD rat; details: for Increase in systolic pressure: 15 minutes before big ET-1 (1nmol/kg i.v.), vehicle group 96 ± 4
T2 construct: from tissue; host or cells: whole anesthetized male SD rat (in vivo)
T2 sequence (P42893 1-762): T1 sequence (P42893 1-762)
Protocol: Test 2 Effect on the change in blood pressure induced by big ET-1 in rats
Male SD rat (body weight 230∼280g) was anesthetized with sodium thiobarbiturate (65mg/kg, i.p.) and fixed on a warming surgical bed, and the right femoral artery and the vein were cannulated for measurement of arterial blood pressure and for injection of test compounds, respectively. The ganglia were blocked by intraperitoneal administration of pentolinium (10mg/kg). After stabilization of blood pressure for about 10 minutes, test compound or its vehicle (polyethylene glycol 400) was administered intravenously (0.5ml/kg). Fifteen minutes later, the big ET-1 (1nmol/kg) was administered intravenously. ECE inhibitory activities of the test compounds in vivo shown by an index of the change in blood pressure induced by big ET-1 were evaluated by inhibitory ratio to that of the vehicle group.

| IC50 (rat lung ECE) | inhibitory activity (endopeptidase) | inhibition at 10 µM (stromelissin) | SMILES | Big ET-1-induced increasing in blood pressure (ECE; 3 and 10mg/kg intravenously) | Increase in systolic pressure (ECE; Dose 3 mg/kg intravenously) | Increase in systolic pressure (ECE; Dose 10 mg/kg intravenously) |
| --- | --- | --- | --- | --- | --- | --- |
| 290 nM | – | – | Cc1ccc(S(=O)(=O)NC(=O)Nc2c(C#N)cnn2C2CCCCC2)cc1 [Example 4, 4-cyano-1-cyclohexyl-5-{3-(4-toluenesulfonyl)ureido}-(1H)-pyrazole] | – | – | – |
| 4600 nM | under 20% | < 20% | Cc1ccc(S(=O)(=O)NC(=O)Nc2c(C#N)cnn2-c2ccccc2)cc1 [Preparation 1, 4-cyano-1-phenyl-5-{3-(4-toluenesulfonyl)ureido}-(1H)-pyrazole] | – | – | – |
| 45 nM | – | – | Cc1nn(-c2ccccc2)c(NC(=O)NS(=O)(=O)c2ccc(Cl)cc2)c1C#N [Example 37, 4-cyano-3-methyl-1-phenyl-5-{3-(4-chlorobenzenesulfonyl)ureido}-(1H)-pyrazole] | apparently inhibited | 65 ± 8 mmHg | 34 ± 6 mmHg |
